According to ChEMBL document CHEMBL1671792, “Conformationally constrained farnesoid X receptor (FXR) agonists: heteroaryl replacements of the naphthalene” (Bioorg Med Chem Lett, 2011):
Calls of active or inactive are those of the source. No cut-off for these calls is given here.

Tests used:
Homo sapiens [1] = species: Homo sapiens; experiment: Selectivity ratio of EC50 for human FXR to EC50 for human PPARalpha
[2] = Volume of distribution at steady state in iv dosed mouse; assay type: ADME, organism-based; details: in vivo, read-out: Vdss
Homo sapiens [3] = species: Homo sapiens; experiment: Selectivity ratio of EC50 for human FXR to EC50 for human PPARgamma
Mus musculus [4] = experiment: Antidiabetic activity in diet-induced obese mouse assessed as change in body weight at 30 mg/kg, po for 4 weeks measured after 1 week (reference value: 29.6+/-0.9 g); assay type: functional
Mus musculus [5] = experiment: Antidiabetic activity in diet-induced obese mouse assessed as change in body weight at 100 mg/kg, po for 4 weeks measured after 3 weeks (reference value: 29.1+/-0.8 g); assay type: functional
Mus musculus [6] = experiment: Antidiabetic activity in diet-induced obese mouse assessed as triglyceride level at 100 mg/kg, po for 4 weeks (reference value: 54.4 +/-1.5 mg/dL); assay type: functional
Mus musculus [7] = experiment: Antidiabetic activity in diet-induced obese mouse assessed as total cholesterol level at 100 mg/kg, po for 4 weeks (reference value: 140.0 +/-2.8 mg/dL); assay type: functional
Cytochrome P450 2C19 = Cytochrome P450 2C19 (Homo sapiens, UniProt P33261); experiment: Inhibition of CYP2C19 in human liver microsome; assay type: microsomes
Chain of Cytochrome P450 2C19 (P33261 whole entry): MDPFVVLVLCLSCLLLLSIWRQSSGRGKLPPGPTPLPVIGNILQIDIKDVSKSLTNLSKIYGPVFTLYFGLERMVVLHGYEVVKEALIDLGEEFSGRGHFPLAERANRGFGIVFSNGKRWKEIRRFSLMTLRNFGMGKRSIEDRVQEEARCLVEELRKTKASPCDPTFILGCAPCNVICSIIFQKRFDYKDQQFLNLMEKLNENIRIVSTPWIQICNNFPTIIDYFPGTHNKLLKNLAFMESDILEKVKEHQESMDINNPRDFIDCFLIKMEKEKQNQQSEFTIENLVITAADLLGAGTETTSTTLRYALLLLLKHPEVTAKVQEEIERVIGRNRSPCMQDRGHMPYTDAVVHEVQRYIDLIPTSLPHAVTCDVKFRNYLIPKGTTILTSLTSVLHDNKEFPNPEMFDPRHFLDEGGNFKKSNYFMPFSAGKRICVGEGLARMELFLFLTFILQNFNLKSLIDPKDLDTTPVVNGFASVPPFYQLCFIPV

Mus musculus [8] = experiment: Antidiabetic activity in diet-induced obese mouse assessed as change in body weight at 10 mg/kg, po for 4 weeks measured after 4 weeks (reference value: 30.3+/-0.8 g); assay type: functional
Mus musculus [9] = experiment: Antidiabetic activity in diet-induced obese mouse assessed as serum insulin level at 10 mg/kg, po for 4 weeks (reference value: […]); assay type: functional
Mus musculus [10] = experiment: Antidiabetic activity in diet-induced obese mouse assessed as NEFA level at 10 mg/kg, po for 4 weeks (reference value: 0.46 +/-0.02 mEq/dL); assay type: functional
Rattus norvegicus = experiment: Dose normalized AUC in orally dosed rat; assay type: ADME, organism-based; details: in vivo, po
[11] = Clearance in iv dosed Beagle dog; assay type: ADME, organism-based, Canis lupus familiaris; details: in vivo
Cynomolgus monkey = experiment: Dose normalized AUC in orally dosed cynomolgus monkey; assay type: ADME, organism-based, Macaca fascicularis; details: in vivo, po
Mus musculus [12] = experiment: Antidiabetic activity in diet-induced obese mouse assessed as serum insulin level at 30 mg/kg, po for 4 weeks (reference value: […]); assay type: functional
Mus musculus [13] = experiment: Antidiabetic activity in diet-induced obese mouse assessed as serum glucose level at 30 mg/kg, po for 4 weeks (reference value: 316.5 +/-13.2 mg/dL); assay type: functional
Mus musculus [14] = experiment: Antidiabetic activity in diet-induced obese mouse assessed as change in body weight at 100 mg/kg, po for 4 weeks measured after 4 weeks (reference value: 29.1+/-0.8 g); assay type: functional
Cytochrome P450 2D6 = Cytochrome P450 2D6 (Homo sapiens, UniProt P10635); experiment: Inhibition of CYP2D6 in human liver microsome; assay type: microsomes
Chain of Cytochrome P450 2D6 (P10635 whole entry): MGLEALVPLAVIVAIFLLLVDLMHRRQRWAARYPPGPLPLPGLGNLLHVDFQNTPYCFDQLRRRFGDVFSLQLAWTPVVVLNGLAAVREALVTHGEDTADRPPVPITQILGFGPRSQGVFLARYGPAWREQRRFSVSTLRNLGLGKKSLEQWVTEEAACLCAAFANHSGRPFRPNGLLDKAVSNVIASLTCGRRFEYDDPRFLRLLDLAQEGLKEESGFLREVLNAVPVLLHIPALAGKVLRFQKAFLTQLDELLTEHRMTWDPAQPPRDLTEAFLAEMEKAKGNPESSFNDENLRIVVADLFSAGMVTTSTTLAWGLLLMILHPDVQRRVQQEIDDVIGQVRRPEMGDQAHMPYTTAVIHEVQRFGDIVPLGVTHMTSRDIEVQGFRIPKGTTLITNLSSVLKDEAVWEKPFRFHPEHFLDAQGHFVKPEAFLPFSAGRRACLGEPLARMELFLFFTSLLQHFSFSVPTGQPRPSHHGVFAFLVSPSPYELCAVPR

[15] = Oral bioavailability in cynomolgus monkey; assay type: ADME, organism-based, Macaca fascicularis; details: in vivo
Bile acid receptor = target: T1, Bile acid receptor (Homo sapiens, UniProt Q96RI1); experiment: Agonist activity at human FXR LBD iexpressed in monkey CV-1 cells assessed as transactivation of luciferase reporter gene expression; assay type: functional, cell-based
T1 sequence (Q96RI1 whole entry): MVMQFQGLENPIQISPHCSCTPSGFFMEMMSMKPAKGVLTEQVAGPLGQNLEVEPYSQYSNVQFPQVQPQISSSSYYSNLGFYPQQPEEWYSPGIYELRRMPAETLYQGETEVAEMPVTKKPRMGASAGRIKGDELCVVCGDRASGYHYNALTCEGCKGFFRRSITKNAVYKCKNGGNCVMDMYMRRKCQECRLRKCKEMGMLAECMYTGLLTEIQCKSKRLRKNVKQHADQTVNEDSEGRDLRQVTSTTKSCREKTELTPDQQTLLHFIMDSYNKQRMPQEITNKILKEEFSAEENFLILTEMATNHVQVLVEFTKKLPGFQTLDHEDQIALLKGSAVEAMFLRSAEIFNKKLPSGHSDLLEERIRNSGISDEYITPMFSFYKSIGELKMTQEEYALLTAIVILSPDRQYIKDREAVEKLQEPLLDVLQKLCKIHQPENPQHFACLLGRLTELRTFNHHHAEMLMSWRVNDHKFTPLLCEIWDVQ

Mus musculus [16] = experiment: Antidiabetic activity in diet-induced obese mouse assessed as serum glucose level at 10 mg/kg, po for 4 weeks (reference value: 316.5 +/-13.2 mg/dL); assay type: functional
Mus musculus [17] = experiment: Antidiabetic activity in diet-induced obese mouse assessed as triglyceride level at 30 mg/kg, po for 4 weeks (reference value: 54.4 +/-1.5 mg/dL); assay type: functional
[18] = target: T2, Bile acid receptor (Homo sapiens) (UniProt Q96RI1); experiment: Binding affinity to human FXR by X-ray crystallography
T2 sequence (whole entry): T1 sequence (Q96RI1 whole entry)

Mus musculus [19] = experiment: Dose normalized AUC in orally dosed mouse; assay type: ADME, organism-based; details: in vivo, po
Mus musculus [20] = experiment: Antidiabetic activity in diet-induced obese mouse assessed as change in body weight at 10 mg/kg, po for 4 weeks measured after 3 weeks (reference value: 30.3+/-0.8 g); assay type: functional
[21] = target: T2, Bile acid receptor (Homo sapiens); experiment: Agonist activity at human FXR LBD iexpressed in monkey CV-1 cells assessed as transactivation of luciferase reporter gene expression relative to GW 4064; assay type: functional, cell-based; set-up: concentration or dose not given beside the values
[22] = Half life in iv dosed mouse; assay type: ADME, organism-based; details: in vivo
Homo sapiens [23] = species: Homo sapiens; experiment: Selectivity ratio of EC50 for human FXR to EC50 for human RORalpha
Mus musculus [24] = experiment: Antidiabetic activity in diet-induced obese mouse assessed as total cholesterol level at 30 mg/kg, po for 4 weeks (reference value: 140.0 +/-2.8 mg/dL); assay type: functional
[25] = Half life in iv dosed cynomolgus monkey; assay type: ADME, organism-based, Macaca fascicularis; details: in vivo
Homo sapiens [26] = species: Homo sapiens; experiment: Selectivity ratio of EC50 for human FXR to EC50 for human PPARdelta
Mus musculus [27] = experiment: Antidiabetic activity in diet-induced obese mouse assessed as beta-hydroxybutyrate level at 10 mg/kg, po for 4 weeks (reference value: 1.7 +/-0.1 mg/dL); assay type: functional
Cytochrome P450 1A2 = target: T3, Cytochrome P450 1A2 (Homo sapiens, UniProt P05177); experiment: Inhibition of CYP1A2 in human liver microsome; assay type: microsomes
T3 sequence (P05177 whole entry): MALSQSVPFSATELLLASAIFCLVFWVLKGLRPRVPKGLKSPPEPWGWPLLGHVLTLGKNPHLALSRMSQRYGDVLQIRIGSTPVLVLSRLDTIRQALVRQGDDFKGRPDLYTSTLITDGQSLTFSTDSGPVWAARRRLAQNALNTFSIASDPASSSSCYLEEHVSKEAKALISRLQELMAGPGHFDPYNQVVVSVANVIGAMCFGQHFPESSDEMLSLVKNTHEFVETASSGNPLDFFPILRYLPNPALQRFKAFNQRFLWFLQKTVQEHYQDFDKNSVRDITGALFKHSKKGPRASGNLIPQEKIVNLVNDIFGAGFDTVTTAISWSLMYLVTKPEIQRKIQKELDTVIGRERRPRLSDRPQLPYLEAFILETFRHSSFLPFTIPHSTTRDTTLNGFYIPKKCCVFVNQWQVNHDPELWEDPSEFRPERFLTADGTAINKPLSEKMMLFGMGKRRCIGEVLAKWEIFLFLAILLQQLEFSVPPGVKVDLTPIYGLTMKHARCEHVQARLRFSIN

CC(C)c1onc(-c2c(Cl)cccc2Cl)c1COc1ccc(-c2ccc3nc(C(=O)O)ccc3c2)cc1
Ratio EC50 (Homo sapiens [1]): 100 | Vd [2]: 1.6 L/kg | Ratio EC50 (Homo sapiens [3]): 100 | Activity (Mus musculus [4]): 28.4 g | Activity (Mus musculus [5]): 24.1 g | Activity (Mus musculus [6]): 47.4 mg/dL | Activity (Mus musculus [7]): 87.9 mg/dL | IC50 (Cytochrome P450 2C19): > 33 µM | Activity (Mus musculus [8]): 29 g | Activity (Mus musculus [9]): 0.63 ng/mL | Activity (Mus musculus [10]): 0.53 mEq/dL | AUC (Rattus norvegicus): 130 ng·kg·h/mg/mL | clearance [11]: 4.4 mL/min/kg | AUC (Cynomolgus monkey): 850 ng·kg·h/mg/mL | Activity (Mus musculus [12]): 0.58 ng/mL | Activity (Mus musculus [13]): 282.2 mg/dL | Activity (Mus musculus [14]): 25.6 g | IC50 (Cytochrome P450 2D6): > 33 µM | bioavailability [15]: 15% | EC50 (Bile acid receptor): 0.05 µM | Activity (Mus musculus [16]): 313 mg/dL | Activity (Mus musculus [17]): 51.1 mg/dL | Activity [18]: Active | AUC (Mus musculus [19]): 310 ng·kg·h/mg/mL | Activity (Mus musculus [20]): 29 g | Activity [21]: 102% | half-life [22]: 1.4 h | Ratio EC50 (Homo sapiens [23]): 100 | Activity (Mus musculus [24]): 99.6 mg/dL | half-life [25]: 2 h | Ratio EC50 (Homo sapiens [26]): 100 | Activity (Mus musculus [27]): 1.7 mg/dL | IC50 (Cytochrome P450 1A2): 21 µM
